Assay results published in paper PMC9993459, “A novel selective spleen tyrosine kinase inhibitor SKI-O-703 (cevidoplenib) ameliorates lupus nephritis and serum-induced arthritis in murine models” (Clinical and Experimental Immunology, 2022).

Columns and labels:
[1] = target: Jak3 (Homo sapiens, UniProt P52333); experiment: Kinase assay (LANCE Ultra TR-FRET), Jak3; type: biochemical
Protocol: (§1) Kinase assays were conducted in 384-well plates using LANCE ultra 66 time-resolved fluorescence resonance energy transfer (TR-FRET) methods, according to the manufacturer’s instructions (Perkin-Elmer). In brief, each kinase was pre-incubated with a serially diluted compound for 30 min, incubated with ULight poly-GT peptide substrate and ATP for up to 1 h. Thirty minutes after adding Eu-labeled anti-phosphopeptides Ab diluted in LANCE Detection Buffer, LANCE signals were measured with an EnVision multilabel reader (Perkin-Elmer).

[2] = tested on: Syk phosphorylation (Y525/526), BLNK, PLCγ1, Vav1; experiment: Immunoblotting of phosphorylated Syk and downstream molecules in Ramos cells, human primary monocytes and THP-1 cells; type: cell-based; conditions: all three cell lines, dose-dependent, more potent than R406
Protocol: THP-1 and Ramos cell lines and human CD14^+ monocytes were purchased from the American Type Culture Collection (ATCC) and Lonza, respectively. After treatment with Syk inhibitors for 1 h, THP-1 cells and monocytes were stimulated for 15 min with 100 μg/ml human IgG (Invitrogen), and Ramos cells were stimulated with 2 μg/ml anti-human IgM monoclonal Ab (mAb) (Bathyl). Cells were lysed in RIPA buffer containing 1% NP-40, 1% sodium deoxycholate, 0.1% SDS, and a mixture of protease and phosphatase inhibitors (Thermo Scientific). The lysates were assayed by standard immunoblotting methods and ELISA. Primary Abs used for immunoblotting were anti-phospho-Syk ([…]), anti-phospho-Vav (Y174), anti-phospho-PLCγ1 (Y1217) and anti-phospho-BLNK (Y96) Abs (all from Cell Signaling). ELISAs to detect phospho-Syk (Y525/526) were performed according to the manufacturer’s protocol (Cell Signaling).
Figure 1: in vitro inhibitory effects of SKI-O-592 and -703 on Syk in B cells and monocytes. […] The relative intensities of protein phosphorylation levels were quantitated with reference to each lane of β-actin control bands. (D) Ramos cells, human primary monocytes, and THP cells were treated as in A–C for 24 h and levels of phosphorylated Syk (p-Syk) were measured by ELISA. […] A representative FACS profile and data on the dose-response of mean fluorescence intensity (MFI) are shown. […]

[3] = target: FLT3 (Homo sapiens, UniProt P36888); experiment: Kinase assay (LANCE Ultra TR-FRET), FLT3; type: biochemical
Protocol: as §1

[4] = target: RET (Homo sapiens, UniProt P07949); experiment: Kinase assay (LANCE Ultra TR-FRET), RET; type: biochemical
Protocol: as §1

[5] = tested on: BALB/c mice; experiment: K/BxN serum-transferred arthritis (KSTA) in BALB/c mice; type: in vivo, mouse
Protocol: Arthritogenic serum was collected from 8-to-15-week-old K/BxN mice. Eight-week-old male BALB/c mice were injected intraperitoneally (ip) with 100 μl of K/BxN serum to induce arthritis. The mice were treated orally twice daily with 42 or 84 mpk of SKI-O-703 from that day for 9 days. In some experiments, mice were injected ip every 2 days with 400 μg/mouse of the TNF blocker, etanercept (Amgen). Ankle thickness was measured, and arthritic index was determined daily, as described previously. On day 9 post-induction, spleens and draining (inguinal and axillary) lymph nodes (LNs) were removed post mortem and assayed by histopathological and immunologic methods.
Hind paws were removed from KSTA mice, fixed, and decalcified in 5.5% EDTA in phosphate-buffered formalin. The paws were embedded in paraffin, sectioned, and stained with hematoxylin and eosin (H&E). Arthritic changes in the ankle and foot were scored (0–4 scale) and expressed as a histopathologic index, as described previously. Safranine O-stained sections were scored (0–4 scale) and expressed as the score for cartilage erosion, as described.
Single-cell suspensions of spleen and LN cells were prepared as previously described. Joint tissues from hind paws of KSTA mice were dissected free of soft tissue and bones, digested with 100 μg/ml Liberase (Roche) for 45 min at 37 °C, and filtered through a 70-μm-pore cell strainer (SPL Life Sciences) to prepare single cell suspensions of synovial infiltrates. The single cell suspensions were stained with an appropriate combination of mAbs and analyzed by FACS. The mAbs used were: CD138-PE, B220-PerCP or -APC-cy7, FAS-PE, CD19-PerCP or -APC, CD21-FITC or -APC, CD43-APC, CD23-PE-cy7, CD8a-PE, CD25-APC-cy7, CXCR5-biotin, GL7-FITC, CD45.2-FITC, CD27-FITC, Ki-67-FITC, Gr-1-FITC, CD4-FITC or -APC-cy7, phospho-Syk-PE, CD11b-PE or -PerCP, PD-1-APC, CD44-APC-cy7, and F4/80-PerCP mAbs (all from BD Biosciences, eBioscience or Biolegend). Streptavidin-PerCP was purchased from BD Biosciences.

[6] = target: T1, phosphorylation of Syk in mouse primary B cells (Mus musculus, UniProt P48025); experiment: p-Syk by FACS in stimulated mouse primary B cells; type: cell-based; conditions: BCR and CD40 stimulation
T1 construct: endogenous in cells; host or cells: mouse primary B cells (splenic CD19+ B cells of C57BL/6 mice)
Text: Figure 1: in vitro inhibitory effects of SKI-O-592 and -703 on Syk in B cells and monocytes. Ramos cells (A), human primary monocytes (B), and THP cells (C) were pretreated with inhibitors at the indicated concentrations and stimulated with anti-human IgM (A) and human IgG (B and C). The cells were then lysed and assayed by immunoblotting methods. The relative intensities of protein phosphorylation levels were quantitated with reference to each lane of β-actin control bands. (D) Ramos cells, human primary monocytes, and THP cells were treated as in A–C for 24 h and levels of phosphorylated Syk (p-Syk) were measured by ELISA. (E) Mouse primary B cells were stimulated with anti-IgM mAb for 60 min in the presence or absence of SKI-O-703 and assayed for p-Syk by FACS. A representative FACS profile and data on the dose-response of mean fluorescence intensity (MFI) are shown. The data are representative of two independent experiments.

Sequence of FLT3 (P36888 27-993, species assumed): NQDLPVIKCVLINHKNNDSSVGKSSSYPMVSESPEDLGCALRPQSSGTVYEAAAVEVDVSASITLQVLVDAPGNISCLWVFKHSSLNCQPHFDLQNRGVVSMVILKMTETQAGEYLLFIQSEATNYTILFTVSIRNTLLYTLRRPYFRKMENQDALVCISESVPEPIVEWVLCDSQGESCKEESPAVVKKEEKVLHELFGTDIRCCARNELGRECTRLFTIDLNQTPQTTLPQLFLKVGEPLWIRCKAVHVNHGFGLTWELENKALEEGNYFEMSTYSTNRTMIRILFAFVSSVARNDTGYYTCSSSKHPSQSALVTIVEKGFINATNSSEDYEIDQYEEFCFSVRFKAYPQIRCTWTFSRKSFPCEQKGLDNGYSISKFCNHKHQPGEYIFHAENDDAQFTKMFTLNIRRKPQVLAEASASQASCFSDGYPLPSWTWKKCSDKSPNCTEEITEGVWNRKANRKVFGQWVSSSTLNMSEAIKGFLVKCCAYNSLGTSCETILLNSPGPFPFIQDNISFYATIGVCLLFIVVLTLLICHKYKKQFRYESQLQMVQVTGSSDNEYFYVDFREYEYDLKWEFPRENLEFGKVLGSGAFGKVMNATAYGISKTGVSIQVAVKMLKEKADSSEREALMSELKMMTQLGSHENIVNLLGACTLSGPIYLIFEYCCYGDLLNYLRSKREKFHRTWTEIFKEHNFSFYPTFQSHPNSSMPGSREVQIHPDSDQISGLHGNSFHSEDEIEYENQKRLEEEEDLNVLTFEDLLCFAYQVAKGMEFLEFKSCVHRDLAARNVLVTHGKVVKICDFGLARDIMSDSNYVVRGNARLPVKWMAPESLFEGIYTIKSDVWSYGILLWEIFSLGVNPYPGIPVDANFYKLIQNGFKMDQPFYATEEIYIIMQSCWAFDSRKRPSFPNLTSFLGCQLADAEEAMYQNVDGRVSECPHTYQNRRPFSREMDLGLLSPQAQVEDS
Sequence of RET (P07949 29-1114, species assumed): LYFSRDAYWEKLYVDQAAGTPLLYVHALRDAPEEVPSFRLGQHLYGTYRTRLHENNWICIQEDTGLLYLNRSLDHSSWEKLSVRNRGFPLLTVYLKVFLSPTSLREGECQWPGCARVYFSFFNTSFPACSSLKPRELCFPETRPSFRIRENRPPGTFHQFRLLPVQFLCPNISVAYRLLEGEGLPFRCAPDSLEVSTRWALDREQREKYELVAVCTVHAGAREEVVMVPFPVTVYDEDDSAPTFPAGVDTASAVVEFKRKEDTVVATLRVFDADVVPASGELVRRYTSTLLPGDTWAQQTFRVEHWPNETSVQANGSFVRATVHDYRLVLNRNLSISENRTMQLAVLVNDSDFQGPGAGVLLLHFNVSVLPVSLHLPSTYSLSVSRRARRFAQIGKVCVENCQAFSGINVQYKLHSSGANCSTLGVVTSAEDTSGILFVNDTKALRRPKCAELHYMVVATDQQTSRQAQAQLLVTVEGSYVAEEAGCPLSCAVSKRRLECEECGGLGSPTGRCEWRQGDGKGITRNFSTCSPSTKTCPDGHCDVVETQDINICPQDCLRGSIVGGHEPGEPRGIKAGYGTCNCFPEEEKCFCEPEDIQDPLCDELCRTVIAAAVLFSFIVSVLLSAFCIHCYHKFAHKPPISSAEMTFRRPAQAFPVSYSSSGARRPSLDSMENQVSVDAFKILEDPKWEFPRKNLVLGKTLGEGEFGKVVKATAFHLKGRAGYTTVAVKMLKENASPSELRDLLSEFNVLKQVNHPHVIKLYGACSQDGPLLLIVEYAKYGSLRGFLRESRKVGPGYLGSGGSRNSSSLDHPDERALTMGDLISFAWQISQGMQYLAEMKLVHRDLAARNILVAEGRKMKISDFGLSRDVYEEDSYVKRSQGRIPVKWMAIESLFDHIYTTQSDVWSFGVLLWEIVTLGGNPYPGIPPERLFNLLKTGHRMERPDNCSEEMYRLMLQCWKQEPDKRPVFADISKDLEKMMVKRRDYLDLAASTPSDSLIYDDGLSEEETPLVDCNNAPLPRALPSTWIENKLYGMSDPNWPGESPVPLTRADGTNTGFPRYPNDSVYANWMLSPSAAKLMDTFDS
Sequence of Jak3 (P52333 whole entry, species assumed): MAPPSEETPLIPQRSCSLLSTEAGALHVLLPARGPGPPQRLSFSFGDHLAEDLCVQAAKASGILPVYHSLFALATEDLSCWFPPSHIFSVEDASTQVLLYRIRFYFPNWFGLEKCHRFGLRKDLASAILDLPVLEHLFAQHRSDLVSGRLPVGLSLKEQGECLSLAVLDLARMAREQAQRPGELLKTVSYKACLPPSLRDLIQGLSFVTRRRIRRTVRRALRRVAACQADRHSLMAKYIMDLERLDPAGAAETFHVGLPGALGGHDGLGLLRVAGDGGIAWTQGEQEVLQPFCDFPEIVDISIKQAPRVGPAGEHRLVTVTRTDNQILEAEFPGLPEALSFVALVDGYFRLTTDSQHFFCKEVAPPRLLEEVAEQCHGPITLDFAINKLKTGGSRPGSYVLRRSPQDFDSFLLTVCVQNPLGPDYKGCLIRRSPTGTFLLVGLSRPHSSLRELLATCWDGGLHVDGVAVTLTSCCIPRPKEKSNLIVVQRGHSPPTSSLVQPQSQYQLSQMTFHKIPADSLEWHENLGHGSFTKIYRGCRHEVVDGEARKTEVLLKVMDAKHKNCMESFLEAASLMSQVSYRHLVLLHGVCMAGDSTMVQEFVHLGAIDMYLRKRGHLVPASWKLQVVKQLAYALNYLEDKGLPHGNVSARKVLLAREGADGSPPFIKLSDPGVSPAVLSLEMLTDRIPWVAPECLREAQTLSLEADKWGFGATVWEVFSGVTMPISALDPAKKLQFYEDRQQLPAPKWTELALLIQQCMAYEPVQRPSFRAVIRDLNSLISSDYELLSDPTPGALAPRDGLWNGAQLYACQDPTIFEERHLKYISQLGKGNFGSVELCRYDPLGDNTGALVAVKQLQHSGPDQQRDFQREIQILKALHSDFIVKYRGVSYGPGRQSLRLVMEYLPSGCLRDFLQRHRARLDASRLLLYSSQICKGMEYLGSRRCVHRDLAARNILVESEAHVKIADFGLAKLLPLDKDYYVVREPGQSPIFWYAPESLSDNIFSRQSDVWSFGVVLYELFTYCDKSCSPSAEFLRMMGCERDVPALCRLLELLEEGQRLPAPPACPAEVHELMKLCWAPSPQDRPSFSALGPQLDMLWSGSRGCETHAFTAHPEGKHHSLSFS
T1 sequence (P48025 whole entry): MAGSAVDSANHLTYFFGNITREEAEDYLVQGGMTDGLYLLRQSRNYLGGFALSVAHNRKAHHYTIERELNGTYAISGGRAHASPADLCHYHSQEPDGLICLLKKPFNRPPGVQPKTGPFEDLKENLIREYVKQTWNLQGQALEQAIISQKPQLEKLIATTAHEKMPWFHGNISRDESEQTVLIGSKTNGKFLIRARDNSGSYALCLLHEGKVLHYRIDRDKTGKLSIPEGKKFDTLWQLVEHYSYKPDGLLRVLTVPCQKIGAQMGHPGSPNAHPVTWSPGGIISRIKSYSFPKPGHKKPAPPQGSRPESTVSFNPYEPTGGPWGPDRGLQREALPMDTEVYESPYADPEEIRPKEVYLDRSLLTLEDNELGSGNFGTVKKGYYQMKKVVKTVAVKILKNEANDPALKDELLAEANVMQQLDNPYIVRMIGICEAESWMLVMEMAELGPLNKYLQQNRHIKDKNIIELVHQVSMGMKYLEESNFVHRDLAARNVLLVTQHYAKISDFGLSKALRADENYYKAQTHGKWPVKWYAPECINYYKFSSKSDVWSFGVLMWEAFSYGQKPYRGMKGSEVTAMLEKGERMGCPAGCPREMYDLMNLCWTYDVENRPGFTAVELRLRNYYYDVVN

With `Cc1nn(-c2ccnc(Nc3ccc4c(c3)c(C(=O)C3CC3)cn4C)n2)cc1CN1C[C@H](O)CO1` [SKI-O-592] the “Ratio to Syk (Jak3)” value ([1]; IC50 ratio to Syk) was 943, the IC50 ([1]; kinase activity, TR-FRET) was 5.81 µM and the “Phosphorylation of Syk Y525/526 and downstream BLNK, PLCγ1, Vav1 (immunoblotting)” value [2] was “inhibited phosphorylation”. The “Ratio to Syk (FLT3)” value ([3]; IC50 ratio to Syk) was 289, the IC50 ([3]; kinase activity, TR-FRET) was 1780 nM and the “Ratio to Syk (RET)” value ([4]; IC50 ratio to Syk) was 67. The IC50 ([4]; kinase activity, TR-FRET) was 412 nM.
In the case of `CS(=O)(=O)O.CS(=O)(=O)O.Cc1nn(-c2ccnc(Nc3ccc4c(c3)c(C(=O)C3CC3)cn4C)n2)cc1CN1C[C@H](O)CO1` [SKI-O-703, (S)-cyclopropyl(5-((4-(4-((4-hydroxyisoxazolidin-2-yl)methyl)-3-methyl-1H-pyrazol-1-yl)pyrimidin-2-yl)amino)-1-methyl-1H-indol-3-yl)methanone dimesylate], the “Ankle thickness and arthritic index” value ([5]; 42 mpk (lower dose) oral twice daily for 9 days) is reported as “the reduction was less pronounced”, the “Progression of KSTA (ankle thickness, arthritic index, inflammatory cell infiltration)” value ([5]; 42 mpk SKI-O-703 combined with TNF blocker etanercept, synergistic) is reported as “significantly suppressed disease progression” and the “Ankle thickness and arthritic index” value ([5]; 84 mpk oral twice daily for 9 days) is reported as “dramatically reduced to the basal level”. For the same molecule, the “Numbers of whole immune cells (CD45+) infiltrated into synovial tissue” value ([5]; 84 mpk, mainly neutrophils and macrophages) was “significantly reduced”, the “Histopathologic index and cartilage erosion score” value ([5]; high dose (84 mpk), day 9) was “significantly reduced” and the “Joint-draining LN total cells, B cells and GC B cells” value ([5]; high dose, day 9, lymphadenopathy disappeared) was “significantly reduced numbers”. For the same molecule, the “Progression of KSTA” value ([5]; suboptimal dose 42 mpk, alone) was “did not significantly inhibit progression of KSTA” and the “Phosphorylation of Syk in mouse primary B cells” value [6] was “reduced the phosphorylation of Syk”.
